From patent US9113629B2, “4-amino-6-(4-substituted-phenyl)-picolinates and 6-amino-2-(4-substituted-phenyl)-pyrimidine-4-carboxylates and their use as herbicides” (DOW AGROSCIENCES LLC, priority 2013, dated 2015)

test system: Key Grass and Sedge Weeds as well as Grass Crops; assay: Post-emergent Test II herbicidal activity (Table 6); type: in vivo; settings: post-emergence, 336 h, CYPES: yellow nutsedge (Cyperus esculentus), 70 g ai/ha, read-out: Visual Growth Reduction (%) 14 Days After Application, CYPES
Method in brief: (§1)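 Post-emergence foliar spray, 187 L/ha, track sprayer at 43 cm above canopy. Carrier: acetone/water/IPA/DMSO/Atplus 411F/Triton X-155. Plants at 1st–2nd true leaf; subirrigated afterwards; % injury scored visually at 14 d.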

Q: For `C#Cc1ccc(-c2nc(C(=O)O)c(Cl)c(N)c2F)c(F)c1` [Compound 108], which pest or weed control at 70 g/ha is on record?
A: Its pest or weed control at 70 g/ha is 45 to 59%.

same assay, conditions: post-emergence, 336 h, CYPES: yellow nutsedge (Cyperus esculentus), 140 g ai/ha, read-out: Visual Growth Reduction (%) 14 Days After Application, CYPES

Q: With `C#Cc1ccc(-c2nc(C(=O)O)c(Cl)c(N)c2F)c(F)c1` [Compound 108] as the molecule, how does the pest or weed control at 140 g/ha read?
A: Its pest or weed control at 140 g/ha is 30 to 44%.

same assay, conditions: post-emergence, 336 h, DIGSA: crabgrass (Digitaria sanguinalis), 70 g ai/ha, read-out: Visual Growth Reduction (%) 14 Days After Application, DIGSA

Q: For `C#Cc1ccc(-c2nc(C(=O)O)c(Cl)c(N)c2F)c(F)c1` [Compound 108], which pest or weed control at 70 g/ha is on record?
A: Its pest or weed control at 70 g/ha is 60 to 74%.

same assay, conditions: post-emergence, 336 h, DIGSA: crabgrass (Digitaria sanguinalis), 140 g ai/ha, read-out: Visual Growth Reduction (%) 14 Days After Application, DIGSA

Q: For `C#Cc1ccc(-c2nc(C(=O)O)c(Cl)c(N)c2F)c(F)c1` [Compound 108], which pest or weed control at 140 g/ha is on record?
A: Its pest or weed control at 140 g/ha is 60 to 74%.

same assay, conditions: post-emergence, 336 h, ECHCG: barnyardgrass (Echinochloa crus-galli), 70 g ai/ha, read-out: Visual Growth Reduction (%) 14 Days After Application, ECHCG

Q: With `C#Cc1ccc(-c2nc(C(=O)O)c(Cl)c(N)c2F)c(F)c1` [Compound 108] as the molecule, how does the pest or weed control at 70 g/ha read?
A: The pest or weed control at 70 g/ha was 45 to 59%.

same assay, conditions: post-emergence, 336 h, ECHCG: barnyardgrass (Echinochloa crus-galli), 140 g ai/ha, read-out: Visual Growth Reduction (%) 14 Days After Application, ECHCG

Q: Which pest or weed control at 140 g/ha does the source give for `C#Cc1ccc(-c2nc(C(=O)O)c(Cl)c(N)c2F)c(F)c1` [Compound 108] here?
A: The pest or weed control at 140 g/ha was 75 to 84%.

same assay, conditions: post-emergence, 336 h, ORYSA: rice (Oryza sativa), crop, 70 g ai/ha, read-out: Visual Growth Reduction (%) 14 Days After Application, ORYSA

Q: For `C#Cc1ccc(-c2nc(C(=O)O)c(Cl)c(N)c2F)c(F)c1` [Compound 108], which pest or weed control at 70 g/ha is on record?
A: The pest or weed control at 70 g/ha was 0 to 29%.

same assay, conditions: post-emergence, 336 h, ORYSA: rice (Oryza sativa), crop, 140 g ai/ha, read-out: Visual Growth Reduction (%) 14 Days After Application, ORYSA

Q: With `C#Cc1ccc(-c2nc(C(=O)O)c(Cl)c(N)c2F)c(F)c1` [Compound 108] as the molecule, how does the pest or weed control at 140 g/ha read?
A: The pest or weed control at 140 g/ha was 0 to 29%.

same assay, conditions: post-emergence, 336 h, SETFA: giant foxtail (Setaria faberi), 70 g ai/ha, read-out: Visual Growth Reduction (%) 14 Days After Application, SETFA

Q: Which pest or weed control at 70 g/ha does the source give for `C#Cc1ccc(-c2nc(C(=O)O)c(Cl)c(N)c2F)c(F)c1` [Compound 108] here?
A: The pest or weed control at 70 g/ha was 45 to 59%.

same assay, conditions: post-emergence, 336 h, SETFA: giant foxtail (Setaria faberi), 140 g ai/ha, read-out: Visual Growth Reduction (%) 14 Days After Application, SETFA

Q: Which pest or weed control at 140 g/ha does the source give for `C#Cc1ccc(-c2nc(C(=O)O)c(Cl)c(N)c2F)c(F)c1` [Compound 108] here?
A: The pest or weed control at 140 g/ha was 30 to 44%.

same assay, conditions: post-emergence, 336 h, SORVU: grain sorghum (Sorghum vulgare), 70 g ai/ha, read-out: Visual Growth Reduction (%) 14 Days After Application, SORVU

Q: For `C#Cc1ccc(-c2nc(C(=O)O)c(Cl)c(N)c2F)c(F)c1` [Compound 108], which pest or weed control at 70 g/ha is on record?
A: Its pest or weed control at 70 g/ha is 0 to 29%.

same assay, conditions: post-emergence, 336 h, SORVU: grain sorghum (Sorghum vulgare), 140 g ai/ha, read-out: Visual Growth Reduction (%) 14 Days After Application, SORVU

Q: Which pest or weed control at 140 g/ha does the source give for `C#Cc1ccc(-c2nc(C(=O)O)c(Cl)c(N)c2F)c(F)c1` [Compound 108] here?
A: The pest or weed control at 140 g/ha was 30 to 44%.

same assay, conditions: post-emergence, 336 h, TRZSS (wheat, Triticum aestivum), crop, 70 g ai/ha, read-out: Visual Growth Reduction (%) 14 Days After Application, TRZSS

Q: With `C#Cc1ccc(-c2nc(C(=O)O)c(Cl)c(N)c2F)c(F)c1` [Compound 108] as the molecule, how does the pest or weed control at 70 g/ha read?
A: Its pest or weed control at 70 g/ha is 30 to 44%.

same assay, conditions: post-emergence, 336 h, TRZSS (wheat, Triticum aestivum), crop, 140 g ai/ha, read-out: Visual Growth Reduction (%) 14 Days After Application, TRZSS

Q: With `C#Cc1ccc(-c2nc(C(=O)O)c(Cl)c(N)c2F)c(F)c1` [Compound 108] as the molecule, how does the pest or weed control at 140 g/ha read?
A: Its pest or weed control at 140 g/ha is 30 to 44%.

same assay, conditions: post-emergence, 336 h, ZEAMX: maize, corn (Zea mays), crop, 70 g ai/ha, read-out: Visual Growth Reduction (%) 14 Days After Application, ZEAMX

Q: For `C#Cc1ccc(-c2nc(C(=O)O)c(Cl)c(N)c2F)c(F)c1` [Compound 108], which pest or weed control at 70 g/ha is on record?
A: Its pest or weed control at 70 g/ha is 0 to 29%.

same assay, conditions: post-emergence, 336 h, ZEAMX: maize, corn (Zea mays), crop, 140 g ai/ha, read-out: Visual Growth Reduction (%) 14 Days After Application, ZEAMX

Q: Which pest or weed control at 140 g/ha does the source give for `C#Cc1ccc(-c2nc(C(=O)O)c(Cl)c(N)c2F)c(F)c1` [Compound 108] here?
A: The pest or weed control at 140 g/ha was 45 to 59%.

test system: Key Broadleaf Weed and Crop Species; assay: Post-emergent Test II herbicidal activity (Table 5); type: in vivo; settings: post-emergence, 336 h; ABUTH: velvetleaf (Abutilon theophrasti); application rate 70 g ai/ha; 14 days after application; read-out: Visual Growth Reduction (%) 14 Days After Application, ABUTH
Method in brief: as §1

Q: For `C#Cc1ccc(-c2nc(C(=O)O)c(Cl)c(N)c2F)c(F)c1` [Compound 108], which pest or weed control at 70 g/ha is on record?
A: Its pest or weed control at 70 g/ha is 45 to 59%.

same assay, conditions: post-emergence, 336 h; ABUTH: velvetleaf (Abutilon theophrasti); application rate 140 g ai/ha; 14 days after application; read-out: Visual Growth Reduction (%) 14 Days After Application, ABUTH

Q: Which pest or weed control at 140 g/ha does the source give for `C#Cc1ccc(-c2nc(C(=O)O)c(Cl)c(N)c2F)c(F)c1` [Compound 108] here?
A: Its pest or weed control at 140 g/ha is 75 to 84%.

same assay, conditions: post-emergence, 336 h; AMARE: redroot pigweed (Amaranthus retroflexus); application rate 70 g ai/ha; 14 days after application; read-out: Visual Growth Reduction (%) 14 Days After Application, AMARE

Q: Which pest or weed control at 70 g/ha does the source give for `C#Cc1ccc(-c2nc(C(=O)O)c(Cl)c(N)c2F)c(F)c1` [Compound 108] here?
A: The pest or weed control at 70 g/ha was 75 to 84%.

same assay, conditions: post-emergence, 336 h; AMARE: redroot pigweed (Amaranthus retroflexus); application rate 140 g ai/ha; 14 days after application; read-out: Visual Growth Reduction (%) 14 Days After Application, AMARE

Q: Which pest or weed control at 140 g/ha does the source give for `C#Cc1ccc(-c2nc(C(=O)O)c(Cl)c(N)c2F)c(F)c1` [Compound 108] here?
A: The pest or weed control at 140 g/ha was 95 to 100%.

same assay, conditions: post-emergence, 336 h; BRSNN: oilseed-rape, canola (Brassica napus); application rate 70 g ai/ha; 14 days after application; read-out: Visual Growth Reduction (%) 14 Days After Application, BRSNN

Q: For `C#Cc1ccc(-c2nc(C(=O)O)c(Cl)c(N)c2F)c(F)c1` [Compound 108], which pest or weed control at 70 g/ha is on record?
A: Its pest or weed control at 70 g/ha is 85 to 94%.

same assay, conditions: post-emergence, 336 h; BRSNN: oilseed-rape, canola (Brassica napus); application rate 140 g ai/ha; 14 days after application; read-out: Visual Growth Reduction (%) 14 Days After Application, BRSNN

Q: Which pest or weed control at 140 g/ha does the source give for `C#Cc1ccc(-c2nc(C(=O)O)c(Cl)c(N)c2F)c(F)c1` [Compound 108] here?
A: Its pest or weed control at 140 g/ha is 85 to 94%.

same assay, conditions: post-emergence, 336 h; CHEAL: lambsquarters (Chenopodium album); application rate 70 g ai/ha; 14 days after application; read-out: Visual Growth Reduction (%) 14 Days After Application, CHEAL

Q: With `C#Cc1ccc(-c2nc(C(=O)O)c(Cl)c(N)c2F)c(F)c1` [Compound 108] as the molecule, how does the pest or weed control at 70 g/ha read?
A: Its pest or weed control at 70 g/ha is 60 to 74%.

same assay, conditions: post-emergence, 336 h; CHEAL: lambsquarters (Chenopodium album); application rate 140 g ai/ha; 14 days after application; read-out: Visual Growth Reduction (%) 14 Days After Application, CHEAL

Q: Which pest or weed control at 140 g/ha does the source give for `C#Cc1ccc(-c2nc(C(=O)O)c(Cl)c(N)c2F)c(F)c1` [Compound 108] here?
A: The pest or weed control at 140 g/ha was 75 to 84%.

same assay, conditions: post-emergence, 336 h; EPHHL: wild poinsettia (Euphorbia heterophylla); application rate 70 g ai/ha; 14 days after application; read-out: Visual Growth Reduction (%) 14 Days After Application, EPHHL

Q: Which pest or weed control at 70 g/ha does the source give for `C#Cc1ccc(-c2nc(C(=O)O)c(Cl)c(N)c2F)c(F)c1` [Compound 108] here?
A: The pest or weed control at 70 g/ha was 85 to 94%.

same assay, conditions: post-emergence, 336 h; EPHHL: wild poinsettia (Euphorbia heterophylla); application rate 140 g ai/ha; 14 days after application; read-out: Visual Growth Reduction (%) 14 Days After Application, EPHHL

Q: For `C#Cc1ccc(-c2nc(C(=O)O)c(Cl)c(N)c2F)c(F)c1` [Compound 108], which pest or weed control at 140 g/ha is on record?
A: The pest or weed control at 140 g/ha was 95 to 100%.

same assay, conditions: post-emergence, 336 h; HELAN: sunflower (Helianthus annuus); application rate 70 g ai/ha; 14 days after application; read-out: Visual Growth Reduction (%) 14 Days After Application, HELAN

Q: With `C#Cc1ccc(-c2nc(C(=O)O)c(Cl)c(N)c2F)c(F)c1` [Compound 108] as the molecule, how does the pest or weed control at 70 g/ha read?
A: Its pest or weed control at 70 g/ha is 85 to 94%.

same assay, conditions: post-emergence, 336 h; HELAN: sunflower (Helianthus annuus); application rate 140 g ai/ha; 14 days after application; read-out: Visual Growth Reduction (%) 14 Days After Application, HELAN

Q: Which pest or weed control at 140 g/ha does the source give for `C#Cc1ccc(-c2nc(C(=O)O)c(Cl)c(N)c2F)c(F)c1` [Compound 108] here?
A: Its pest or weed control at 140 g/ha is 95 to 100%.

same assay, conditions: post-emergence, 336 h; VIOTR: wild pansy (Viola tricolor); application rate 70 g ai/ha; 14 days after application; read-out: Visual Growth Reduction (%) 14 Days After Application, VIOTR

Q: Which pest or weed control at 70 g/ha does the source give for `C#Cc1ccc(-c2nc(C(=O)O)c(Cl)c(N)c2F)c(F)c1` [Compound 108] here?
A: The pest or weed control at 70 g/ha was 0 to 29%.

same assay, conditions: post-emergence, 336 h; VIOTR: wild pansy (Viola tricolor); application rate 140 g ai/ha; 14 days after application; read-out: Visual Growth Reduction (%) 14 Days After Application, VIOTR

Q: Which pest or weed control at 140 g/ha does the source give for `C#Cc1ccc(-c2nc(C(=O)O)c(Cl)c(N)c2F)c(F)c1` [Compound 108] here?
A: Its pest or weed control at 140 g/ha is 45 to 59%.

test system: not given; assay: not given; settings: not given

Q: With `C#Cc1ccc(-c2nc(C(=O)O)c(Cl)c(N)c2F)c(F)c1` [Compound 108] as the molecule, how does the melting point read?
A: The melting point was 165 to 175 °C (dec.).
